Source: paper PMC10412585 (Nature Communications, 2023)

Tests used:
NKG2C+ NK cells = test: NK cell activation assay with peptide-pulsed RMA-S/HLA-E cells; assay type: cell-based, human; conditions: RMA-S/HLA-E target cells, 300 µM peptide ([…] µM BFAR263-271), E:T 2:1, 6 h, flow cytometry, n = 3 (n = 2 for some) donors
Experimental: Fig. 4 NK cell stimulation assays. Assessment of effects of peptides on NK cell activity through incubation of NK cells, peptides, and (A) K562/HLA-E or (B) RMA-S/HLA-E target cells. […] Replicates for individual peptides are from different donors, with solid black lines indicating mean values. […] Representative gating for NKG2A^+/NKG2C^- and NKG2A^-/NKG2C^+ NK cells is shown in Supplemental Fig. 14. Source data are provided as a Source Data file.
In contrast to K562 cell lines which are targets for human NK cells, RMA-S cells (a TAP-deficient mouse cell line)[48] are inert to human NK cells and thus will not activate NK cells absent engagement of an activating receptor on the NK cells. […] We performed additional NK cell activation assays with RMA-S/HLA-E cells (Fig. 4B).
All analyses of human data were carried out in compliance with the relevant ethical regulations. Healthy blood donors gave informed consent at DRK Blutspendedienst Nord-Ost, Dresden, Germany, and buffy coats were obtained as approved by Charité ethics committee (EA4/059/17). PBMCs were isolated from human CMV-seropositive buffy coats by density centrifugation over Ficoll Paque Plus (GE Healthcare) and screened for the presence of NKG2C^+ NK cell expansions by flow cytometry to have sufficient frequencies of single-positive cells for parallel assessment of activation and inhibition via HLA-E[47]. Total NK cells from donors with NKG2C^+ expansions (>10% NKG2A^-/NKG2C^+ NK cells) were enriched with CD56 microbeads (Miltenyi Biotec) and cryopreserved in FBS with 10% v/v DMSO. After thawing, NK cells were washed with complete medium, stained with antibodies and Fixable Viability Dye eFluor 780 (Thermo Fisher) for 15 min at 4 °C in PBS, sorted as viable CD56^+ CD3^− cells, and rested in complete media overnight. […] Brefeldin A and Monensin (BD Biosciences) were added after a 1 h culture period. After an additional 5 h, the stimulation was stopped by centrifugation at 4 °C. Cells underwent surface staining, followed by fixation and intracellular staining using Inside Stain Kit (Miltenyi Biotec). Samples were analyzed by flow cytometry on an LSR Fortessa (BD Biosciences). Inhibition of NKG2A^+ NK cells and activation of NKG2C^+ NK cells was assessed by gating on the respective single-positive populations (Supplemental Fig. 14). Antibodies are listed in Supplemental Table 1: anti-human CD56 PE/Dazzle 594 (1:200 dilution), CD3 APC-eFluor 780 (1:50 dilution), anti-human CD159a (NKG2A) Biotin REAfinity (1:50 dilution), anti-human CD159c (NKG2C) PE REAfinity (1:100 dilution), anti-human CD107a (LAMP-1) Alexa Fluor 488 (1:400 dilution), anti-human IFN-γ PE-Vio 770 REAfinity (1:50 dilution), anti-human TNF-α Brilliant Violet 605 (1:50 dilution), anti-human CCL3 (MIP-1α) REAfinity (1:25 dilution).

HLA-E = test: Prometheus differential scanning fluorimetry of HLA-E with peptide; assay type: binding, human; conditions: refolded HLA-E*01:03/β2M 9 μg, 50x peptide to MHC ratio, high sensitivity capillary, 1 °C per minute 20-95 °C, first inflection point; DMSO control 33.8
Experimental: Differential scanning fluorimetry (DSF) experiments were performed with a Prometheus NanoTemper NT.48 (Munich, Germany) to measure protein stability, using intrinsic tryptophan fluorescence.
For these experiments, refolded empty HLA-E was generated. Human β2M plus a poly-histidine tag and HLA-E*01:03 extracellular α1, α2, and α3 domains plus an AviTag biotinylation tag were separately codon optimized for E. coli and cloned into the bacterial expression vector pET28a. Inclusion bodies for HLA-E and β2M were made in BL21 E. coli. Inclusion bodies were purified, homogenized, and dissolved, including denaturation in 8 M urea solution. Before refolding, each IB was mixed with an equal volume of Gdn-Cl solution (6 M Guanidine HCl, 500 mM Tris, 2 mM EDTA, 100 mM NaCl) and incubated overnight at 37 °C. β2M was injected dropwise with a 27-gauge needle into refolding buffer (100 mM pH 8.3 Tris, 400 mM L-arginine hydrochloride, 2 mM EDTA, 0.5 mM oxidized glutathione, 5 mM reduced glutathione, 0.2 mM PMSF) and incubated, stirring gently, at 4 °C for 1 h, after which an equal mass of HLA-E heavy chain was similarly injected. This solution incubated at 4 °C overnight, followed by two days of dialysis in 10 mM Tris + 50 mM NaCl. Protein was concentrated in 10 kDa molecular weight cutoff centrifugal concentrators and purified by size exclusion chromatography on an AKTAPURE FPLC (GE Healthcare, Chicago IL), using an S200 column followed by a S75 column.
Individual DSF reactions were set up with 9 μg of MHC and 100×, 50×, or 10× peptide to MHC ratio by molarity (peptides from GenScript). The final reaction volume was 20 μL and reaction mixtures were incubated at room temperature for 20–30 min.
Prometheus excitation power was set such that raw fluorescence counts were between 8000–15000 for each sample. Samples were heated at 1 °C per minute, from 20–95 °C. DSF measurements were taken in duplicate with high-sensitivity and standard capillaries. Melting temperatures were similar for a given peptide across conditions, and representative data from 50x ratio in high sensitivity capillary are presented. A secondary inflection point around 60 °C in most melts is consistent with melting of β2M[76]. […]
Supplemental Figure 9. Differential scanning fluorimetry data generated via Prometheus NanoTemper for predicted peptides with HLA-E. a) Raw 350/330 nm ratios and first derivative for samples. The second inflection point is consistent with β2M unfolding. b) Summary of Tm values for the first inflection point called by Prometheus software for these samples. […]

NKG2A+/NKG2C- NK cells = test: NK cell activation assay with peptide-pulsed K562/HLA-E cells, NKG2A+/NKG2C- NK cells; assay type: cell-based, human; conditions: K562/HLA-E target cells, 300 µM peptide ([…] µM BFAR263-271), E:T 2:1, 6 h; degranulation (CD107a), IFN-γ, TNF, CCL3; flow cytometry
NKG2A-/NKG2C+ NK cells = test: NK cell activation assay with peptide-pulsed K562/HLA-E cells, NKG2A-/NKG2C+ NK cells; assay type: cell-based, human; conditions: K562/HLA-E target cells, 300 µM peptide ([…] µM BFAR263-271), E:T 2:1, 6 h; degranulation (CD107a), IFN-γ, TNF, CCL3; flow cytometry

Sequence	NKG2C-mediated NK cell activation (NKG2C+ NK cells)	Tm (HLA-E) [°C]	inhibitory effects on NKG2A+ cells (NKG2A+/NKG2C- NK cells)	activating effects on NKG2C+ cells (NKG2A-/NKG2C+ NK cells)
VMAPRTLFL [positive control]	most potent activating peptide	51.5	–	–
VNPGRSLFL [BFAR263-271, human peptide from Bifunctional apoptosis regulator]	activation similar to the weaker positive control ([…]) or between the two positive controls	38.5	minimal inhibitory effects	clear activating effects
